{"source": "paper PMC4767605", "about": "(Cancer chemotherapy and pharmacology, 2016)", "key": {"advanced solid tumors": {"test_system": "advanced solid tumors", "details": "ASP9853 + docetaxel"}, "ovarian cancer (MCUAS)": {"test_system": "ovarian cancer (MCUAS)", "test": "Ovarian cancer xenograft in mice, combination with paclitaxel", "format": "in vivo", "details": "ASP9853 in combination with paclitaxel, data not shown"}, "[1]": {"test_system": "human NSCLC cell line Calu-6", "details": "ASP9853 alone, 100 mg/kg oral, twice daily"}}, "data": [{"compound": "O.O.O=C(/C=C/c1ccc(Cl)cc1)N[C@@H](Cc1ccccn1)C(=O)NCC(=O)N1CCC(Oc2cc(C(F)(F)F)ncn2)CC1", "note": "[ASP9853, (2E)-3-(4-chlorophenyl)-N-[(1S)-2-oxo-2-{[2-oxo-2-(4-{[6-(trifluoromethyl)-4-pyrimidinyl]oxy}-1-piperidinyl)ethyl]amino}-1-(2-pyridinylmethyl)ethyl]acrylamide dehydrate]", "values": [{"measurement": "Duration of stable disease, mean (SD)", "setting": "advanced solid tumors", "result": "49.4 (47.2) days"}, {"measurement": "Duration of stable disease, median [range]", "setting": "advanced solid tumors", "result": "78 [1–133] days"}, {"measurement": "Patients with best overall response of stable disease", "setting": "advanced solid tumors; Eight patients", "result": 38.1, "unit": "%"}, {"measurement": "Objective radiographic responses", "setting": "advanced solid tumors; eighteen patients evaluable", "result": "no objective radiographic responses were observed"}, {"measurement": "Tumor growth inhibition", "setting": "ovarian cancer (MCUAS)", "result": "greater tumor growth inhibition"}, {"measurement": "Antitumor activity in the Calu-6 NSCLC xenograft model", "setting": "[1]", "result": "no antitumor activity"}]}]}
